Experimental data taken from the supplement of paper PMC10307832.

What was measured:
Assay in all cases: relative viability (nuclei count vs DMSO), 5 days (fraction); higher = more cells survive
[1] = compound: C(C(=O)C(=O)O)Br [Bromopyruvate] + CC(=O)Nc1cccc(-n2c(=O)n(C3CC3)c(=O)c3c(Nc4ccc(I)cc4F)n(C)c(=O)c(C)c32)c1 [Trametinib] (partner 0.02 µM)
Procedure, shortened: (§1)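 Five library-drug doses in √10 steps were combined with a fixed anchor-drug dose, or a single drug was given alone, by pin tool to lung cancer cell lines in 1536-well plates the day after seeding. Nuclei were stained and counted after 5 days. Relative viability is the nuclei count in treated wells over that in vehicle wells, taken as the median of duplicate plates.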

[2] = compound: C(C(=O)C(=O)O)Br [Bromopyruvate] + CCNC(=O)c1noc(-c2cc(C(C)C)c(O)cc2O)c1-c1ccc(CN2CCOCC2)cc1 [Luminespib] (partner 0.01 µM)
Procedure, shortened: as §1

[3] = compound: CC(O)(CS(=O)(=O)c1ccc(F)cc1)C(=O)Nc1ccc(C#N)c(C(F)(F)F)c1 [Bicalutamide] + CS(=O)(=O)N1CCN(Cc2cc3nc(-c4cccc5[nH]ncc45)nc(N4CCOCC4)c3s2)CC1 [Pictilisib] (partner 1 µM)
Procedure, shortened: as §1

Bicalutamide + Olaparib = compound: CC(O)(CS(=O)(=O)c1ccc(F)cc1)C(=O)Nc1ccc(C#N)c(C(F)(F)F)c1 [Bicalutamide] + O=C(c1cc(Cc2n[nH]c(=O)c3ccccc23)ccc1F)N1CCN(C(=O)C2CC2)CC1 [Olaparib] (partner 8 µM)
Procedure, shortened: as §1

Cell Line	relative viability ([1]; first compound 1 µM)	relative viability ([1]; first compound 3.162 µM)	relative viability ([1]; first compound 10 µM)	relative viability ([1]; first compound 31.62 µM)	relative viability ([1]; first compound 100 µM)	relative viability ([2]; first compound 1 µM)	relative viability ([2]; first compound 3.162 µM)	relative viability ([2]; first compound 10 µM)	relative viability ([2]; first compound 31.62 µM)	relative viability ([2]; first compound 100 µM)	relative viability ([3]; first compound 0.08 µM)	relative viability ([3]; first compound 0.253 µM)	relative viability ([3]; first compound 0.8 µM)	relative viability ([3]; first compound 2.53 µM)	relative viability (Bicalutamide + Olaparib; first compound 0.08 µM)	relative viability (Bicalutamide + Olaparib; first compound 0.253 µM)	relative viability (Bicalutamide + Olaparib; first compound 0.8 µM)	relative viability (Bicalutamide + Olaparib; first compound 2.53 µM)
NCI-H460	0.164	0.101	0.132	0.18	0.235	0.0351	0.0317	0.0297	0.0334	0.0363	0.343	0.335	0.478	0.356	0.439	0.391	0.436	0.383
NCI-H520	0.653	0.716	0.755	0.637	0.646	0.223	0.216	0.228	0.182	0.242	0.516	0.254	0.281	0.335	0.342	0.31	0.335	0.337
NCI-H596	0.743	0.84	0.789	0.74	0.845	1.05	1.02	1.14	0.951	0.282	0.409	0.623	0.404	0.475	0.604	0.767	0.799	0.844
NCI-H647	0.425	0.472	0.665	0.473	0.488	0.203	0.306	0.108	0.109	0.4	0.358	0.348	0.643	0.339	0.571	0.384	0.591	0.381
NCI-H650	0.971	1.02	0.928	0.955	0.991	0.887	0.723	0.791	0.704	0.724	0.726	0.671	0.951	0.768	0.373	0.395	0.401	0.396
NCI-H661	0.546	0.588	0.579	0.523	0.603	0.882	0.969	0.964	0.91	0.892	0.433	–	0.494	0.407	0.815	0.768	0.74	0.779
NCI-H727	0.42	0.376	0.461	0.428	0.36	0.277	0.571	0.218	0.377	0.592	0.415	0.456	0.377	0.423	0.895	0.678	0.614	0.732
NCI-H838	0.521	0.529	0.68	0.539	0.516	0.282	0.359	0.456	0.324	0.282	0.589	0.415	0.524	0.324	0.777	0.778	0.733	0.522
NCI-H1355	0.415	0.467	0.335	0.452	0.445	0.721	0.77	0.649	0.735	0.698	0.413	0.316	0.441	0.485	0.711	0.696	0.848	0.668
